Laboratory results taken from patent US10214518B2, “Pyrazolyl substituted carbonic acid derivatives as modulators of the prostacyclin (PGI2) receptor useful for the treatment of disorders related thereto” (Arena Pharmaceuticals, Inc., priority 2008, dated 2019).

Columns and labels:
[1] = test system: MCT-induced pulmonary arterial hypertension in rat; assay: Rat monocrotaline (MCT) model of pulmonary arterial hypertension; assay type: in vivo; settings: 30 mg/kg oral gavage twice a day for 21 days; 60 mg/kg MCT s.c.; male Wistar rats; Day 22
Method: Example 4: Rat Model of Pulmonary Arterial Hypertension
Male Wistar rats (100-150 g at start of study) (Charles River Laboratories, Wilmington, Mass.) were housed two per cage and maintained in a humidity—(40-60%) and temperature—(68-72° F.) controlled facility on a 12 hr:12 hr light/dark cycle (lights on at 6:30 am) with free access to food (Harlan Teklad, Orange Calif., Rodent Diet 8604) and water. Rats were allowed one week of habituation to the animal facility before testing.
The rat monocrotaline (MCT) model is a standard and well-accepted model of pulmonary arterial hypertension. MCT induces acute pulmonary endothelial damage associated with pulmonary vascular inflammation. […]
Rats were randomly given a single subcutaneous injection of either 60 mg/kg MCT (Sigma, St. Louis, Mo.) or 0.9% saline (sham) and assigned to receive oral administration of 20% hydroxypropyl beta-cyclodextrin (vehicle) or test compound (30 mg/kg; FIGS. 1 and 2). […] Heart chamber weights were measured on Day 22. […] The ratio of right ventricular (RV) weight to left ventricle plus septum (LV+S) weight (this ratio is indicated as “RV/(LV+S)” in FIGS. 1 and 2) was calculated as an index of the hypertrophic response to the induced pulmonary arterial hypertension and, as such, as an index of a test compound's therapeutic efficacy for pulmonary arterial hypertension.

[2] = molecular target: human prostacyclin (PGI2) receptor (Homo sapiens (Human), UniProt P43119); assay: HTRF assay for direct cAMP measurement; assay type: cell-based; settings: recombinant CHO-K1 cells stably transfected with human prostacyclin receptor; cAMP increase
From the text: Example 2: Homogeneous Time-Resolved Fluorescence (HTRF®) Assay for Direct cAMP Measurement
Compounds were screened for agonists of the human prostacyclin (PGI2) receptor using the HTRF® assay for direct cAMP measurement (Gabriel et al., ASSAY and Drug Development Technologies, 1:291-303, 2003) and recombinant CHO-K1 cells stably transfected with human prostacyclin receptor. CHO-K1 cells were obtained from ATCC® (Manassas, Va.; Catalog # CCL-61). An agonist of the prostacyclin receptor was detected in HTRF® assay for direct cAMP measurement as a compound which increased cAMP concentration. HTRF® assay also was used to determine EC50 values for prostacyclin receptor agonists.
The HTRF® assay kit was purchased from Cisbio-US, Inc. (Bedford, Mass.; Catalog #62AM4PEC). The HTRF® assay supported by the kit is a competitive immunoassay between endogenous cAMP produced by the CHO-K1 cells and tracer cAMP labeled with the dye d2. The tracer binding is visualized by a monoclonal anti-cAMP antibody labeled with Cryptate. The specific signal (i.e., fluorescence resonance energy transfer, FRET) is inversely proportional to the concentration of unlabeled cAMP in the standard or sample.
The fluorescence ratio (665 nm/620 nm) of the standards (0.17 to 712 nM cAMP) included in the assay was calculated and used to generate a cAMP standard curve according to the kit manufacturer's instructions. The fluorescence ratio of the samples (test compound or compound buffer) was calculated and used to deduce respective cAMP concentrations by reference to the cAMP standard curve.
The HTRF® assay was carried out using a two-step protocol essentially according to the kit manufacturer's instructions, in 20 μL total volume per well in 384-well plate format (ProxiPlates; PerkinElmer, Fremont, Calif.; catalog #6008280). To each of the experimental wells was transferred 3000 recombinant CHO-K1 cells in 5 μL assay buffer (phosphate buffered saline containing calcium chloride and magnesium chloride (Invitrogen, Carlsbad, Calif.; catalog #14040) supplemented with IBMX (100 μM) and rolipram (10 μM) (phosphodiesterase inhibitors; Sigma-Aldrich, St. Louis, Mo.; catalog #15879 and catalog #R6520, respectively) and 0.1% bovine serum albumin (BSA) fraction V (Sigma-Aldrich; catalog # A3059)), followed by test compound in 5 μL assay buffer or 5 μL assay buffer. The plate was then incubated at room temperature for 1 h. […] The plate was then further incubated at room temperature for 1 h, after which the assay plate was read.
The HTRF® readout was accomplished using a PHERAstar (BMG LABTECH Inc., Durham, N.C.) or EnVision™ (PerkinElmer, Fremont Calif.) microplate reader.

[3] = test system: human platelet-rich plasma (PRP); assay: Human platelet aggregation inhibition test (ADP-induced, PRP); assay type: cell-based; settings: inhibition of aggregation induced by 1x10^-5 M ADP in human PRP
Method: Example 3: Human Platelet Aggregation Inhibition Test
Blood collected from healthy human volunteers in aqueous trisodium citrate solution was centrifuged at 150 g for 15 min and the upper layer was recovered to obtain platelet-rich plasma (PRP). The residual blood was centrifuged at 3000 g for 10 min and the supernatant was collected as platelet-poor plasma (PPP). Platelet concentration in the PRP was determined using the Z series Beckman Coulter particle counter (Beckman, Fullerton, Calif.) and adjusted to 250,000 platelets/μL using PPP. 480 μL of PRP was pre-incubated at 37° C. and stirred at 1200 rpm with 10 μL aqueous test compound solution for 1 min prior to induction of aggregation by the addition of 10 μL of aqueous adenosine diphosphate (ADP) solution to adjust the final ADP concentration in the PRP to 1×10^−5 M. The maximal amplitude of aggregation response within 3 min was determined and measured in triplicate using the Chronolog model 490 aggregometer (Chrono-log Corp., Havertown, Pa.). Percent inhibition of aggregation was calculated from the maximum decrease in optical density of the control (addition of water in place of the test compound solution) sample and of the samples containing test compound. The test compound was added to adjust the final concentration to the range 10^−9 to 10^−4 M, and IC50 values were determined by inhibition percentage of aggregation at each concentration.

Sequence of human prostacyclin (PGI2) receptor (P43119 whole entry): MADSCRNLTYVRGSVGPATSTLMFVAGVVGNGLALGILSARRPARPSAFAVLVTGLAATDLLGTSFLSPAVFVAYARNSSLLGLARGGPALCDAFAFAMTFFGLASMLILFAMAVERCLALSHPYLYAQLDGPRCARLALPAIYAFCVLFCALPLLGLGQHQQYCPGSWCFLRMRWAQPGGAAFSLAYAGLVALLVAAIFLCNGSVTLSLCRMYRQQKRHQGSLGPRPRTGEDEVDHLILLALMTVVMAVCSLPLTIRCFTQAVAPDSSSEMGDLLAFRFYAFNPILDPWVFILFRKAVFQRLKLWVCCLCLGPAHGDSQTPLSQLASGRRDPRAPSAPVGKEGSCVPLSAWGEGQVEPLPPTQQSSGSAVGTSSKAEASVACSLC

SMILES | right ventricle hypertrophic response, RV/(LV+S) [1] | EC50 [2] | IC50 [3]
COc1cccc(-c2c(-c3ccccc3)nn(C[C@H]3CC[C@@H](COCC(=O)O)CC3)c2C)c1 [Compound 14, 2-(((1s,4s)-4-((4-(3-Methoxyphenyl)-5-methyl-3-phenyl-1H-pyrazol-1-yl)methyl)cyclohexyl)methoxy)acetic Acid] | inhibited the hypertrophic response |  | 
COc1cccc(-c2c(-c3ccccc3)nn(C[C@H]3CC[C@@H](COCC(=O)O)CC3)c2SC)c1 [Compound 31, 2-(((1s,4s)-4-((4-(3-Methoxyphenyl)-5-(methylthio)-3-phenyl-1H-pyrazol-1-yl)methyl)cyclohexyl)methoxy)acetic Acid] | inhibited the hypertrophic response |  | 
CCSc1c(-c2cccc(OC)c2F)c(-c2ccccc2)nn1C[C@H]1CC[C@@H](COCC(=O)O)CC1 [Compound 90, 2-(((1s,4s)-4-((5-(Ethylthio)-4-(2-fluoro-3-methoxyphenyl)-3-phenyl-1H-pyrazol-1-yl)methyl)cyclohexyl)methoxy)acetic Acid] |  | 7 nM | 
CSc1c(-c2ccc(C)s2)c(-c2ccccc2)nn1C[C@H]1CC[C@@H](COCC(=O)O)CC1 [Compound 111, 2-(((1s,4s)-4-((5-(Methylthio)-4-(5-methylthiophen-2-yl)-3-phenyl-1H-pyrazol-1-yl)methyl)cyclohexyl)methoxy)acetic Acid] |  | 16 nM | 28 nM
CSc1c(-c2cncc(F)c2)c(-c2ccccc2)nn1C[C@H]1CC[C@@H](COCC(=O)O)CC1 [Compound 135, 2-(((1s,4s)-4-((4-(5-Fluoropyridin-3-yl)-5-(methylthio)-3-phenyl-1H-pyrazol-1-yl)methyl)cyclohexyl)methoxy)acetic Acid] |  |  | 220 nM
O=C(O)COC[C@H]1CC[C@@H](Cn2nc(-c3ccccc3)c(-c3ccccc3)c2SCCO)CC1 [Compound 146, 2-(((1s,4s)-4-((5-(2-Hydroxyethylthio)-3,4-diphenyl-1H-pyrazol-1-yl)methyl)cyclohexyl)methoxy)acetic Acid] |  |  | 70 nM
N#CCSc1c(-c2ccccc2)c(-c2ccccc2)nn1C[C@H]1CC[C@@H](COCC(=O)O)CC1 [Compound 184, 2-(((1s,4s)-4-((5-(Cyanomethylthio)-3,4-diphenyl-1H-pyrazol-1-yl)methyl)cyclohexyl)methoxy)acetic Acid] |  | 11 nM | 20 nM
COc1cccc(-c2c(-c3ccccc3)nn(C[C@H]3CC[C@@H](COCC(=O)O)CC3)c2SCCO)c1 [Compound 198, 2-(((1s,4s)-4-((5-(2-Hydroxyethylthio)-4-(3-methoxyphenyl)-3-phenyl-1H-pyrazol-1-yl)methyl)cyclohexyl)methoxy)acetic Acid] |  | 2 nM | 
